Tests used:
[1] = tested on: human platelets (platelet rich plasma), ADP-induced aggregation; assay: Human platelet aggregation inhibitory activity measurement test (ADP-induced, PRP); assay type: cell-based; details: compound 10 μM (final concentration); ADP-induced aggregation of human PRP; area under the platelet aggregation curve
Protocol: Test Method (1) Human Platelet Aggregation Inhibitory Activity Measurement Test
Using a syringe in which 1/10 vol of a 3.8% sodium citrate solution is contained, blood was collected from a healthy volunteer (adult). The blood was subjected to a centrifugation at 160×g for 10 minutes and a supernatant platelet rich plasma (PRP) was separated. The remaining blood of which the PRP has been collected was subjected to a centrifugation at 1,800×g for 10 minutes and a platelet poor plasma (PPP) was separated. The number of the platelets in the PRP was measured using an automatic blood cell counter (MEK-6258, Nihon Kohden Corporation). After that, the PPP was added to the PRP to adjust the number of the platelets to 3×10^8 /ml, thereby using the platelets for the following tests. As an ADP, which is a platelet aggregating agent, a product manufactured by MC Medical Inc. was used. The platelet aggregation was measured using a platelet aggregometer (MCM Hematracer 212; MC medical Inc.). That is, 80 μl of the PRP having the number of the platelets of 3×10^8 /ml and 10 μl of a test compound solution or solvent (10% DMSO or 10% DMSO-9% hydroxypropyl-β-cyclodextrin-4.5% d-mannitol) were incubated at 37° C. for 1 minute and then 10 μl of ADP (50 μM) was added to the mixture to cause platelet aggregation, thereby recording a variation in transmitted light for 5 minutes. An inhibition rate was calculated using an area under the platelet aggregation curve as an index. In addition, Ex represents a number of the compounds of Examples.

[2] = tested on: rat platelets (PRP), ADP-induced aggregation; assay: Rat platelet aggregation inhibition test (ex vivo after oral administration); assay type: in vivo; details: male SD rat, 30 mg/kg orally, blood collected 2 hours after administration; ADP-induced aggregation of PRP
Protocol: Test Method (3) Rat Platelet Aggregation Inhibition Test and Measurement of Test Compound Concentration in Plasma
An aqueous sodium hydroxide solution and the same amount of a 1% aqueous methyl cellulose solution were added to the compound of the invention to prepare a 0.5% aqueous methyl cellulose solution or a suspension solution. This preparation solution was orally administered to a male SD rat (5 to 7 weeks old) which has been fasted over 12 hours using a sonde at a dose of 30 mg/kg. After 2 hours later since the administration of the compound, using a syringe in which 1/10 vol of a 3.8% sodium citrate solution is contained, a blood was collected. In the same manner as in Test Method (1), a PPP and a PRP having the number of the platelets as 3×10^8 /ml were prepared. 90 μl of the PRP having the number of the platelets of 3×10^8 /ml was incubated at 37° C. for 1 minute and then 10 μl of ADP (50 μM) was added thereto to cause platelet aggregation, thereby recording a variation in transmitted light for 5 minutes. An inhibition rate was calculated using an area under the platelet aggregation curve as an index.

Human P2Y12 = biological target: T1, Human P2Y12 (Homo sapiens, UniProt Q9H244); assay: Substitution test for the binding between human P2Y12 and 2-methylthio-ADP (2-MeS-ADP); details: compound 30 nM (final concentration); [33P]-2-MeS-ADP binding to P2Y12 protein-expressing C6-15 cell membrane fraction
T1 construct: expressed in transfected cells
Protocol: Test Method (2) Substitution Test for the binding between Human P2Y12 and 2-methylthio-ADP(2-MeS-ADP)
In a 10 cm petri dish, C6-15 cells were spread to be 1×10^6 of cells by using a DMEM culture medium and cultured for 1 day. After that, genes of plasmids such as 8 μg of pEF-BOS-dhfr-human P2Y12 and 0.8 μg of pEF-BOS-neo (Nucleic Acid Res., 18, 5322, 1990) were introduced to the cells using a transfection reagent (LipofectAMINE 2000; manufactured by GIBCO BRL Inc.).
After 24 hours since the above-mentioned gene introduction operation had been completed, the cells to which the genes were introduced were recovered and suspended in a DMEM culture medium containing 0.6 mg/ml of G418 (manufactured by GIBCO BRL Inc.). After that, the cells were serially diluted and spread on a 10 cm petri dish. Colonies appeared after 2 weeks later were individually collected and used in the following tests as P2Y12 protein-expressing C6-15 cells (WO 02/36631, Mol. Pharmacol., 60, 432, 2001).
The P2Y12 protein-expressing C6-15 cells were cultured and then the cells were recovered. The cells were washed with PBS, suspended in 20 mM Tris-HCl (pH 7.4) containing 5 mmol/l EDTA and Complete™ (manufactured by Boehringer Mannheim) which is a protease inhibitor cocktail set, and homogenized by Polytron. The cells were subjected to an ultracentrifugation and a precipitate is suspended in 50 mM Tris-HCl (pH 7.4) containing 1 mM of EDTA, 100 mM NaCl, and Complete™ to perform membrane fraction.
To 100 μl of the P2Y12 protein-expressing C6-15 cell membrane fraction (100 μg/ml) produced as mentioned above, 1.5 μl of a test compound solution and 50 μl of 0.75 nM [^33P]-2-MeS-ADP (2100 Ci/mmol, manufactured by PerkinElmer Inc.) were added. The mixture was incubated in 50 mM Tris-HCl (pH 7.4) containing 100 mM NaCl and 50 mM MgCl2 at room temperature for 1 hour, and then recovered by cell harvest on a glass filter. Microscintillators were added to the glass filter and the radioactive activity was measured by a liquid scintillation counter. In addition, simultaneously, the radioactivity in the case where only a solvent is added to the above-mentioned test and in the case where 1.5 μl of 250 μM ADP is added thereto were measured respectively as the total binding amount and the nonspecific binding amount. The total binding amount and the nonspecific binding amount were set respectively as the inhibition rate of 0% and the inhibition rate of 100% to calculate the inhibition rate (%) of the test compound.

T1 sequence (Q9H244 whole entry): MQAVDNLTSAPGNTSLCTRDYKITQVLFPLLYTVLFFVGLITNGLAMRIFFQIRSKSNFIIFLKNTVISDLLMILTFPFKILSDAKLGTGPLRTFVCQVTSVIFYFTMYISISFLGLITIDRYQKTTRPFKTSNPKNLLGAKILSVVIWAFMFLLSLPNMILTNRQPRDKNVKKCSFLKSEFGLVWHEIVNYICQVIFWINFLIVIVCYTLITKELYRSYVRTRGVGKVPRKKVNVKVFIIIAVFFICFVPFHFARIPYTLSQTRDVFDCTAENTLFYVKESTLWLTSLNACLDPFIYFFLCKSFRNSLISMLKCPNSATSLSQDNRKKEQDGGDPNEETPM

**Q.** `O=C(O)/C=C/Cn1c(=O)c2cc(F)c(NC3CCCCC3)cc2n(C2CCCC2)c1=O` [Example 65] was tested. Which inhibition at 10 µM [1] did it give?
**A.** 86%

**Q.** What about the “% Inhibition” value [2] of the same compound?
**A.** 56%

**Q.** For `CC(C)n1c(=O)n(CCCC(=O)O)c(=O)c2cc(F)c(NC3CCCCC3)cc21` [Example 77], which inhibition at 10 µM [1] is on record?
**A.** 88%

**Q.** For `O=C(O)Cn1c(=O)c2cc(F)c(NCC3CC3)cc2n(C2CCCC2)c1=O` [Example 69], which inhibition at 10 µM [1] is on record?
**A.** 50%

**Q.** Which inhibition at 10 µM [1] does the source give for `CC(CCn1c(=O)c2cc(F)c(NC3CCCCC3)cc2n(C2CCCC2)c1=O)C(=O)O` (centres unmarked) [Example 114] here?
**A.** 91%

**Q.** And the inhibition at 0.03 µM (Human P2Y12)?
**A.** 71%

**Q.** What about the “% Inhibition” value [2] of the same compound?
**A.** 90%

**Q.** For `O=C(O)CCCNn1c(=O)c2cc(F)c(NC3CCCCC3)cc2n(C2CCCC2)c1=O` [Example 155], which inhibition at 10 µM [1] is on record?
**A.** 93%

**Q.** What about the inhibition at 0.03 µM (Human P2Y12) of the same compound?
**A.** 72%

**Q.** Which results are given for `O=C(O)CNC(=O)Cn1c(=O)c2cc(F)c(NC3CCCCC3)cc2n(C2CCCC2)c1=O` [Example 42]?
**A.** inhibition at 10 µM [1]: 75%; inhibition at 0.03 µM (Human P2Y12): 56%

**Q.** With `O=C(O)COc1cccc(Cn2c(=O)c3cc(F)c(NC4CCCCC4)cc3n(C3CCCC3)c2=O)c1` [Example 157] as the compound, how does the inhibition at 0.03 µM (Human P2Y12) read?
**A.** 67%

**Q.** For `O=C(O)COn1c(=O)c2cc(F)c(NC3CCCCC3)cc2n(C2CCCC2)c1=O` [Example 24, {[7-(cyclohexylamino)-1-cyclopentyl-6-fluoro-2,4-dioxo-1,4-dihydroquinazolin-3(2H)-yl]oxy}acetic acid], which inhibition at 10 µM [1] is on record?
**A.** 89%

**Q.** What about the inhibition at 0.03 µM (Human P2Y12) of the same compound?
**A.** 60%
